≈ marks a conversion by molar mass, not a printed value. Blank lines part the entries; values can stand above or below the molecule they belong to.
What was measured:
Test in all cases: ≥ marks a high value that may be exact or a test limit, other limits are often not marked, values filed in µg/mL are converted to µM
[1] = test system: Escherichia coli ATCC 25922
[2] = test system: Klebsiella pneumoniae ATCC 13883
[3] = test system: Staphylococcus aureus USA 300
[4] = test system: Pseudomonas aeruginosa PAO1
[5] = test system: Staphylococcus aureus NCTC 8325
[6] = test system: Pseudomonas aeruginosa ATCC 27853
Bacillus subtilis = test system: Bacillus subtilis
[7] = test system: Salmonella enterica subsp. enterica serovar Typhimurium ATCC 14028
[8] = test system: Streptococcus pyogenes ATCC 19615
Escherichia coli = test system: Escherichia coli
[9] = test system: Staphylococcus aureus ATCC 25923
[10] = test system: Enterococcus faecalis ATCC 29212
[11] = test system: Candida albicans ATCC 90028
[12] = test system: Staphylococcus aureus ATCC 29213
Escherichia coli UB1005 = test system: Escherichia coli UB1005
[13] = test system: Salmonella enterica subsp. enterica serovar Typhimurium C77-31
[14] = test system: Staphylococcus epidermidis ATCC 12228
Acinetobacter baumannii = test system: Acinetobacter baumannii
Staphylococcus aureus MR = test system: Staphylococcus aureus MR
[15] = test system: Acinetobacter baumannii ATCC 19606

- MIC [1]: 3.1 µM (≈ 4.02 µg/mL)
- MIC [2]: 3.1 µM (≈ 4.02 µg/mL)
- MIC [3]: 1.56 µM (≈ 2.02 µg/mL)
- MIC [4]: > 25 µM
Structure (SMILES): CC(C)C[C@H](NC(=O)[C@H](CC(C)C)NC(=O)[C@H](CCCCN)NC(=O)CNC(=O)[C@H](CC(C)C)NC(=O)[C@H](C)NC(=O)[C@H](CCCCN)NC(=O)[C@H](CC(C)C)NC(=O)[C@H](C)NC(=O)[C@H](CO)NC(=O)[C@H](CC(C)C)NC(=O)[C@H](CC(C)C)NC(=O)CN)C(N)=O [GLLSALKALGKLL]

- MIC [5]: 15 µM (≈ 20.7 µg/mL)
Structure (SMILES): CC[C@H](C)[C@H](NC(=O)[C@@H](NC(=O)[C@@H]1CCCN1C(=O)[C@H](CC(C)C)NC(=O)[C@@H](N)Cc1ccccc1)[C@@H](C)CC)C(=O)N[C@@H](C)C(=O)N[C@@H](CCCCN)C(=O)N[C@H](C(=O)N[C@@H](CC(C)C)C(=O)N[C@@H](CO)C(=O)NCC(=O)N[C@@H](CC(C)C)C(=O)N[C@@H](CC(C)C)C(N)=O)C(C)C [FLPIIAKVLSGLL]

- MIC [1]: 25 µM (≈ 57.4 µg/mL)
- MIC [11]: ≥ 100 µM
- MIC [5]: ≥ 50 µM
Structure (SMILES): CC[C@H](C)[C@H](NC(=O)[C@H](CC(C)C)NC(=O)[C@H](CCCCN)NC(=O)[C@H](CO)NC(=O)[C@@H](NC(=O)[C@H](C)NC(=O)[C@H](CCCCN)NC(=O)[C@@H](NC(=O)[C@H](C)NC(=O)[C@H](Cc1cnc[nH]1)NC(=O)[C@@H]1CCCN1C(=O)[C@@H](NC(=O)[C@H](CC(C)C)NC(=O)[C@@H]1CCCN1C(=O)CNC(=O)[C@@H](NC(=O)[C@H](Cc1ccc(O)cc1)NC(=O)[C@H](CCCCN)NC(=O)[C@H](CCSC)NC(=O)[C@H](Cc1ccccc1)NC(=O)CN)[C@@H](C)CC)[C@@H](C)CC)C(C)C)[C@@H](C)CC)C(=O)O [GFMKYIGPLIPHAVKAISKLI]

- MIC [1]: 15 µM (≈ 38.4 µg/mL)
- MIC [5]: 3 µM (≈ 7.69 µg/mL)
Structure (SMILES): CC[C@H](C)[C@H](NC(=O)[C@H](C)NC(=O)[C@@H]1CCCN1C(=O)[C@H](CC(C)C)NC(=O)[C@@H](N)Cc1ccccc1)C(=O)N[C@H](C(=O)NCC(=O)N[C@@H](C)C(=O)N[C@@H](C)C(=O)N[C@@H](C)C(=O)N[C@@H](CCCCN)C(=O)N[C@@H](Cc1ccccc1)C(=O)N[C@@H](CC(C)C)C(=O)N1CCC[C@H]1C(=O)N[C@@H](CCCCN)C(=O)N[C@H](C(=O)N[C@@H](Cc1ccccc1)C(=O)N[C@H]1CSSC[C@@H](C(=O)O)NC(=O)[C@H](CCCCN)NC(=O)[C@H](CCCCN)NC(=O)[C@H](CO)NC(=O)[C@H]([C@@H](C)CC)NC(=O)[C@H](C(C)C)NC1=O)[C@@H](C)CC)C(C)C [FLPAIVGAAAKFLPKIFCVISKKC]

- MIC [1]: 19 µM (≈ 50 µg/mL)
- MIC [5]: 8 µM (≈ 21 µg/mL)
Structure (SMILES): CC[C@H](C)[C@@H]1NC(=O)[C@H](C)NC(=O)[C@@H](NC(=O)[C@H](Cc2ccccc2)NC(=O)[C@@H](NC(=O)[C@H](CCCCN)NC(=O)[C@@H]2CCCN2C(=O)[C@H](CC(C)C)NC(=O)[C@H](Cc2ccccc2)NC(=O)[C@H](CC(N)=O)NC(=O)[C@H](C)NC(=O)[C@H](C)NC(=O)[C@H](CCSC)NC(=O)CNC(=O)[C@H](C)NC(=O)[C@@H](NC(=O)[C@H](Cc2ccccc2)NC(=O)[C@@H]2CCCN2C(=O)[C@H](CC(C)C)NC(=O)[C@@H](N)Cc2ccccc2)[C@@H](C)CC)[C@@H](C)CC)CSSC[C@@H](C(=O)O)NC(=O)[C@H](CCCCN)NC(=O)[C@H](CCCCN)NC(=O)[C@H](CO)NC1=O [FLPFIAGMAANFLPKIFCAISKKC]

- MIC [5]: 12 µM (≈ 19.3 µg/mL)
Structure (SMILES): CC[C@H](C)[C@H](NC(=O)[C@H](CC(C)C)NC(=O)[C@@H]1CCCN1C(=O)[C@H](CC(C)C)NC(=O)[C@@H](NC(=O)[C@@H](N)Cc1ccccc1)[C@@H](C)CC)C(=O)N[C@@H](C)C(=O)N[C@@H](CO)C(=O)N[C@@H](Cc1ccccc1)C(=O)N[C@@H](CC(C)C)C(=O)N[C@@H](CO)C(=O)N[C@@H](CCCCN)C(=O)N[C@@H](Cc1ccccc1)C(=O)N[C@@H](CC(C)C)C(N)=O [FILPLIASFLSKFL]

The remaining lines, values behind:

Structure (SMILES): CC[C@H](C)[C@H](NC(=O)CNC(=O)[C@H](CCC(N)=O)NC(=O)[C@H](CC(C)C)NC(=O)[C@H](CC(N)=O)NC(=O)[C@H](CC(C)C)NC(=O)[C@H](Cc1ccccc1)NC(=O)CNC(=O)[C@H](Cc1cnc[nH]1)NC(=O)[C@H](CCCCN)NC(=O)[C@@H](N)CCCN=C(N)N)C(=O)N[C@@H](Cc1ccccc1)C(=O)NCC(=O)N[C@@H](CC(=O)O)C(=O)N[C@@H](Cc1ccc(O)cc1)C(=O)N[C@@H](Cc1ccc(O)cc1)C(=O)N[C@@H](Cc1cnc[nH]1)C(=O)N[C@@H](Cc1ccccc1)C(=O)N[C@@H](Cc1c[nH]c2ccccc12)C(=O)N[C@@H](Cc1cnc[nH]1)C(=O)N[C@@H](CCCN=C(N)N)C(=O)NCC(=O)N[C@H](C(=O)O)C(C)C [RKHGFLNLQGIFGDYYHFWHRGV]
- MIC [6]: > 100 µM
- MIC (Bacillus subtilis): ≥ 100 µM
- MIC [7]: > 100 µM
- MIC [8]: ≥ 100 µM
- MIC (Escherichia coli): 4 µM (≈ 11.4 µg/mL)
- MIC [2]: ≥ 100 µM
- MIC [9]: > 100 µM
- MIC [10]: > 100 µM

Structure (SMILES): CC[C@H](C)[C@H](NC(=O)CN)C(=O)N[C@@H](Cc1ccccc1)C(=O)N[C@H](C(=O)N[C@@H](CCCCN)C(=O)N[C@H](C(=O)N[C@@H](CC(N)=O)C(=O)N[C@@H](CCCCN)C(=O)N[C@@H](CCCCN)C(=O)N[C@@H](CCCCN)C(=O)N[C@@H](C)C(=O)N[C@@H](CCCCN)C(=O)N[C@H](C(=O)NCC(=O)N[C@H](C(=O)N[C@@H](Cc1ccccc1)C(=O)N[C@@H](CC(N)=O)C(=O)N[C@H](C(=O)N[C@H](C(=O)N[C@@H](CCCCN)C(=O)N[C@H](C(=O)N[C@H](C(=O)NCC(=O)N[C@@H](CCCCN)C(=O)N[C@@H](CCC(=O)O)C(=O)N[C@@H](C)C(=O)NCC(=O)N[C@@H](CCSC)C(=O)N[C@@H](CC(=O)O)C(=O)N[C@H](C(=O)N[C@H](C(=O)N[C@@H](CCCN=C(N)N)C(=O)N[C@@H](C)C(=O)NCC(=O)N[C@H](C(=O)N[C@@H](CC(=O)O)C(=O)N[C@H](C(=O)N[C@H](C(=O)N[C@@H](CO)C(=O)N[C@H]1CSSC[C@@H](C(=O)O)NC(=O)[C@H](CCC(=O)O)NC(=O)CNC(=O)[C@H](CCCCN)NC(=O)[C@H]([C@@H](C)CC)NC(=O)[C@H](CCCCN)NC1=O)[C@@H](C)CC)[C@@H](C)O)[C@@H](C)CC)[C@@H](C)CC)C(C)C)[C@@H](C)CC)[C@@H](C)O)[C@@H](C)CC)[C@@H](C)CC)C(C)C)[C@@H](C)O)[C@@H](C)CC)[C@@H](C)O [GIFTKINKKKAKTGVFNIIKTIGKEAGMDVIRAGIDTISCKIKGEC]
- MIC [1]: 1 µM (≈ 4.94 µg/mL)
- MIC [5]: 15 µM (≈ 74.1 µg/mL)

Structure (SMILES): CC(C)C[C@H](NC(=O)[C@H](CCCN=C(N)N)NC(=O)[C@H](Cc1c[nH]c2ccccc12)NC(=O)[C@H](CCCN=C(N)N)NC(=O)[C@@H](NC(=O)[C@H](Cc1c[nH]c2ccccc12)NC(=O)[C@H](Cc1c[nH]c2ccccc12)NC(=O)[C@H](CCCN=C(N)N)NC(=O)[C@H](CC(C)C)NC(=O)[C@H](Cc1c[nH]c2ccccc12)NC(=O)[C@@H](N)CCCN=C(N)N)[C@@H](C)O)C(=O)N[C@@H](CCCCN)C(N)=O [RWLRWWTRWRLK]
- MIC [1]: 4 µM (≈ 7.37 µg/mL)
- MIC [12]: 4 µM (≈ 7.37 µg/mL)
- MIC (Escherichia coli UB1005): 2 µM (≈ 3.68 µg/mL)
- MIC [13]: 4 µM (≈ 7.37 µg/mL)
- MIC [14]: 4 µM (≈ 7.37 µg/mL)
- MIC [9]: 2 µM (≈ 3.68 µg/mL)

Structure (SMILES): CC[C@H](C)[C@H](NC(=O)[C@H](CCCN=C(N)N)NC(=O)[C@H](CCCCN)NC(=O)[C@@H](NC(=O)[C@@H](NC(=O)[C@H](CCCN=C(N)N)NC(=O)[C@@H](N)CCCCN)[C@@H](C)CC)C(C)C)C(=O)N[C@@H](CCCCN)C(=O)N[C@@H](CCCCN)C(=O)N[C@@H](Cc1ccccc1)C(=O)N[C@@H](CC(C)C)C(=O)N[C@@H](CCCN=C(N)N)C(=O)O [KRIVKRIKKFLR]
- MIC [6]: 1.25 µM (≈ 1.98 µg/mL)
- MIC [1]: 1.25 µM (≈ 1.98 µg/mL)
- MIC (Acinetobacter baumannii): ≥ 202 µM
- MIC [12]: 2.5 µM (≈ 3.96 µg/mL)
- MIC (Staphylococcus aureus MR): ≥ 202 µM
- MIC [11]: 2.5 µM (≈ 3.96 µg/mL)
- MIC [15]: ≥ 101 µM
- MIC [9]: ≥ 202 µM

Structure (SMILES): CC[C@@H](C)[C@H](N=C(O)[C@H](CO)N=C(O)C(CC(C)C)N=C(O)[C@H](CCSC)N=C(O)[C@@H]1CCCN1C(=O)[C@H](CC(C)C)N=C(O)CN=C(O)[C@H](N)Cc1ccccc1)C(O)=N[C@H](CC(C)C)C(=O)N1CCCC1C(O)=N[C@H](CCCCN)C(O)=N[C@H](C)C(O)=N[C@H](CC(C)C)C(O)=N[C@H](CS)C(O)=N[C@H](C(O)=N[C@H](CC(C)C)C(O)=N[C@H](CC(C)C)C(O)=N[C@H](CCCCN)C(O)=N[C@H](CCCNC(=N)N)C(O)=N[C@H](CCCCN)C(O)=N[C@H](CS)C(=O)O)[C@H](C)CC (some centres undefined) [FGLPMLSILPKALCILLKRKC]
- MIC [1]: 12 µM (≈ 28.3 µg/mL)
- MIC [5]: 20 µM (≈ 47.2 µg/mL)
